Measured values published in patent US8129184B2, “Cancer stem cell antigen vaccines and methods” (Cedars-Sinai Medical Center, priority 2006, dated 2012).
Entries after “also recorded” stand apart in the source; their conditions may differ.

How the values were obtained:
[1] = system: CD133 positive cells isolated from No. 66; assay: WST-1 Cell Proliferation Assay, drug sensitivity of CD133 positive vs CD133 negative cells, No. 66; assay type: cell-based, human; details: No. 66, 48 hours, 10% FBS/F-12/DMEM
Protocol: FIGS. 10A-10D are line graphs depicting drug sensitivity of CD133 positive cancer stem cells derived from patient No. 66. Tumor cells of No. 66 were cultured in FBS/F-12/DMEM medium for 4 passages. Both CD133 positive and negative tumor cells were collected by FACS sorting. 1×10^4 cells/well were plated in 96-well plate and treated with the indicated concentrations of VP-16, Taxol, temozolomide, and carboplatin for 48 hours in FBS/F-12/DMEM medium. * indicates p<0.05 compared to autologous CD133 negative cells. Data are representative of two independent experiments. (10A) VP16; (10B) Taxol; (10C) temozolomide; (10D) carboplatin.
(§1) To determine whether CD133 positive cancer stem cells were resistant to chemotherapeutic agents, the WST-1 Cell Proliferation Assay was used to examine the drug sensitivity of CD133 positive cells and CD133 negative cells (both collected by FACS sorting from the three glioblastoma patients' primary cultured tumor cells as described above). CD133 positive and negative cells were exposed to conventional chemotherapeutic agents, temozolomide, carboplatin, VP-16 or taxol at various concentrations, for up to 48 hours in 10% FBS/F-12/DMEM culture medium. Temozolomide was supplied by the Schering-Plough Research Institute (Kenilworth, N.J.) and was dissolved in DMSO (Sigma Chemical Co., St Louis, Mo.) at 100 mM stock solution. Carboplatin, etoposide (VP-16) and paclitaxel (Taxol) were obtained from Sigma-Aldrich (St. Louis, Mo.).

[2] = system: CD133 positive cells isolated from No. 377; assay: WST-1 Cell Proliferation Assay, drug sensitivity of CD133 positive vs CD133 negative cells, No. 377; assay type: cell-based, human; details: 48 hours
Protocol: (§2) FIGS. 11A-11C are a set of line graphs depicting drug sensitivity of CD133 positive cancer stem cells derived from patient Nos. 377 and 1049. Tumor cells of patient No. 377 and No. 1049 were cultured in FBS/F-12/DMEM medium for 3 passages. Both CD133 positive and negative tumor cells were collected by FACS sorting. 1×10^4 cells/well were plated in 96-well plate and treated with the indicated concentrations of carboplatin (11A and 11C) or VP-16 (11B) for 48 hours in FBS/F-12/DMAEM medium. * indicates p<0.05 compared to autologous CD133 negative cells. Data are representative of two independent experiments.
as §1, with “Carboplatin, etoposide (VP-16) and paclitaxel (Taxol) were obtained from Sigma-Aldrich (St. Louis, Mo.).” left out

[3] = system: 9L sphere and monolayer cells; assay: WST-1 viability of 9L neurospheres and monolayer cells exposed to chemotherapeutic agents; assay type: cell-based, rat; details: 125-1,000 μM, 2 days
Protocol: To compare the differential proliferation rates and resistance to chemotherapeutic agents, 2,000 healthy 9L sphere and monolayer cells were exposed to either Dulbecco's modified Eagle's medium/F-12 medium containing 10% fetal bovine serum (FBS), or […] stock solution of Temozolamide or Carboplatin dissolved in PBS at concentrations of 1,000 μM, 500 μM, 250 μM, and 125 μM for 2 days. The viability of the cells was scored by measurement of the absorption of formazan dye (the amount of formazan dye formed directly correlates to the number of metabolically active cells) using the cellular proliferation assay WST-1 (Roche Molecular Biochemicals, Mannheim, Germany). Formazan was measured with the use of a microplate reader (Tecan) and spectrophotometer set at a wavelength of 440 nm and a reference wavelength of 890 nm. Cellular viability was determined by exposing cells to WST-1 for 4 hours, and calculating the percentage of viable cells. Proliferation was also assessed by using manual cell counting after 7 days in culture, with an initial cellular concentration of 100,000 cells/mL in a […] flask.

[4] = system: CD133 positive cells isolated from No. 1049; assay: WST-1 Cell Proliferation Assay, drug sensitivity of CD133 positive vs CD133 negative cells, No. 1049; assay type: cell-based, human; details: No. 1049, at 200 μM, 48 hours
Protocol: as §2
as §1, with “Carboplatin, etoposide (VP-16) and paclitaxel (Taxol) were obtained from Sigma-Aldrich (St. Louis, Mo.).” left out

## COc1cc([C@@H]2c3cc4c(cc3[C@@H](O[C@@H]3O[C@@H]5CO[C@@H](C)O[C@H]5[C@H](O)[C@H]3O)[C@H]3COC(=O)[C@H]23)OCO4)cc(OC)c1O [VP-16, etoposide]
[1]
  drug resistance of CD133 positive cells compared to autologous CD133 negative cells: dramatic drug resistance
[2]; No. 377, at 200 μM
  resistance of CD133 positive cells compared to autologous CD133 negative cells: significant resistance

## N.N.O=C([O-])C1(C(=O)[O-])CCC1.[Pt+2] [carboplatin]
[3]
  resistance of neurospheres to the agent compared to monolayer cells: significantly (P<0.05) greater resistance; also recorded: significantly more resistant
[1]
  drug resistance of CD133 positive cells compared to autologous CD133 negative cells: dramatic drug resistance
[2]; No. 377, all concentrations tested
  resistance of CD133 positive cells compared to autologous CD133 negative cells: significant resistance
[4]
  resistance of CD133 positive cells compared to autologous CD133 negative cells: significant resistance

## CC(=O)O[C@H]1C(=O)[C@@]2(C)[C@H]([C@H](OC(=O)c3ccccc3)[C@]3(O)C[C@H](OC(=O)[C@H](O)[C@@H](NC(=O)c4ccccc4)c4ccccc4)C(C)=C1C3(C)C)[C@]1(OC(C)=O)CO[C@@H]1C[C@@H]2O [Taxol, paclitaxel]
[1]
  drug resistance of CD133 positive cells compared to autologous CD133 negative cells: dramatic drug resistance
